Laboratory results taken from ChEMBL document CHEMBL1136033, “Effects of the incorporation of IBTM beta-turn mimetics into the dipeptoid CCK(1) receptor agonist PD 170292” (Bioorg Med Chem Lett, 2002).

How the values were obtained:
[1] = target: T1, Cholecystokinin receptor type A (Rattus norvegicus, UniProt P30551); experiment: Inhibition of [3H]propionyl-CCK-8 specific binding to rat pancreatic Cholecystokinin type A receptor
T1 sequence (P30551 whole entry): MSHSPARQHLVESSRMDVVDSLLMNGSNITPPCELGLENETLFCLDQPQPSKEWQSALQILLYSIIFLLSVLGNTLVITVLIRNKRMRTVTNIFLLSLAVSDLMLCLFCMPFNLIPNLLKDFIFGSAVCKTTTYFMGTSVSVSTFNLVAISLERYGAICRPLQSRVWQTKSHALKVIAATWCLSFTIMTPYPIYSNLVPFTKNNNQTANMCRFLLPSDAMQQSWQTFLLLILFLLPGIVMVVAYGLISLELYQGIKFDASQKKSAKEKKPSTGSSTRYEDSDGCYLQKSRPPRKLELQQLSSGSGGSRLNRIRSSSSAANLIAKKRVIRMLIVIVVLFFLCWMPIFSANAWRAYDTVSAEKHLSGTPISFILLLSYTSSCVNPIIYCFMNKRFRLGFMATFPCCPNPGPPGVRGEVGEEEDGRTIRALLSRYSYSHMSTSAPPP

[2] = target: T2, Gastrin/cholecystokinin type B receptor (Rattus norvegicus, UniProt P30553); experiment: Inhibition of [3H]propionyl-CCK-8 specific binding to rat cerebral cortex membranes Cholecystokinin type B receptor; type: cell membranes, Membrane
T2 sequence (P30553 whole entry): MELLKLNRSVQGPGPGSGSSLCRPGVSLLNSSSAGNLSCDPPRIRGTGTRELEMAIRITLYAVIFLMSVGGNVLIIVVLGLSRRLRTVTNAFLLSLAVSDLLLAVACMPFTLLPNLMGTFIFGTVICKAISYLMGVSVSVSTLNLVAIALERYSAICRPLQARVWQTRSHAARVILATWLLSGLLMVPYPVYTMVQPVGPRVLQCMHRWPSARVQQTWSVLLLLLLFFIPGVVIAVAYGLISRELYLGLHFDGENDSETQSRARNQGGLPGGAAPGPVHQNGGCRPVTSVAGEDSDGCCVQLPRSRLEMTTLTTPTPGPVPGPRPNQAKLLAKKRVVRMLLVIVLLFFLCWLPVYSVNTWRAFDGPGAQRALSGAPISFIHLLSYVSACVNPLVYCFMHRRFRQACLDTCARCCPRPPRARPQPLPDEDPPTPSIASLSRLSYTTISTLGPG

[3] = The compound was tested to antagonize the CCK-8 induced amylase secretion from pancreatic acini; type: functional

Structure (SMILES) | IC50 [1] | IC50 [2] | IC50 [3]
Cc1ccccc1NC(=O)NCCCC[C@@H](CC(=O)O)NC(=O)[C@@H]1Cc2c([nH]c3ccccc23)[C@H]2C[C@H](NC(=O)OCc3ccccc3)C(=O)N21 | 324 nM | > 10000 nM | 
Cc1ccccc1NC(=O)NCCCC[C@@H](CC(=O)O)NC(=O)[C@H]1Cc2c([nH]c3ccccc23)[C@@H]2C[C@@H](NC(=O)OCc3ccccc3)C(=O)N12 | 8.2 nM | 5800 nM | 196 nM
Cc1ccccc1NC(=O)NCCCC[C@@H](CC(=O)O)NC(=O)[C@@](C)(Cc1c[nH]c2ccccc12)NC(=O)OC1C2CC3CC(C2)CC1C3 (some centres not stated) [PD-170292] |  | 6.7 nM | 
O=C(N[C@H]1C[C@@H]2c3[nH]c4ccccc4c3C[C@@H](C(=O)N[C@@H](Cc3ccccc3)C(=O)O)N2C1=O)OCc1ccccc1 |  | > 10000 nM | 
